In ChEMBL document CHEMBL4371021, “BH3 mimetics derived from Bim-BH3 domain core region show PTP1B inhibitory activity” (Bioorg Med Chem Lett, 2019):

What was measured:
[1] = biological target: T1, Tyrosine-protein phosphatase non-receptor type 1 (Homo sapiens) (UniProt P18031); assay: (§1) Inhibition of recombinant human N-terminal poly histidine-tagged PTP1B (Glu2 to Asn321 residues) expressed in Escherichia coli at 40 umol/L using pNPP as substrate measured for 4 mins relative to control
T1 sequence (whole entry): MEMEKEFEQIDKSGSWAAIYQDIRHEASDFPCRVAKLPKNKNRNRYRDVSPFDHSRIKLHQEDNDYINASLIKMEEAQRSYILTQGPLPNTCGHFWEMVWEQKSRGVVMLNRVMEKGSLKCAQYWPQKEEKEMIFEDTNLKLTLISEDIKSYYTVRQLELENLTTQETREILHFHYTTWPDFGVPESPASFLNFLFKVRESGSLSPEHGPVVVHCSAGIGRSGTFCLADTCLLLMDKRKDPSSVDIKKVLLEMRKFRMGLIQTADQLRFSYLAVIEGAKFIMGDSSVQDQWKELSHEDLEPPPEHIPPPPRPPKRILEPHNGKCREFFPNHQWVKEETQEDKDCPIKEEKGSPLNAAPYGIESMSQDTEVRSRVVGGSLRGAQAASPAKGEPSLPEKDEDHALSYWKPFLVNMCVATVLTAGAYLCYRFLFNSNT

[2] = biological target: T2, Tyrosine-protein phosphatase non-receptor type 1 (Homo sapiens, UniProt P18031); assay: Binding affinity to recombinant human N-terminal poly histidine-tagged PTP1B (Glu2 to Asn321 residues) expressed in Escherichia coli by surface plasmon resonance analysis
T2 sequence (P18031 whole entry): T1 sequence (whole entry)

[3] = biological target: T1, Tyrosine-protein phosphatase non-receptor type 1 (Homo sapiens); assay: Binding affinity to recombinant human N-terminal poly histidine-tagged PTP1B (Glu2 to Asn321 residues) expressed in Escherichia coli assessed as dissociation rate constant by surface plasmon resonance analysis
[4] = biological target: T1, Tyrosine-protein phosphatase non-receptor type 1 (Homo sapiens); assay: Binding affinity to recombinant human N-terminal poly histidine-tagged PTP1B (Glu2 to Asn321 residues) expressed in Escherichia coli assessed as association rate constant by surface plasmon resonance analysis
[5] = biological target: Tyrosine-protein phosphatase non-receptor type 1 (Homo sapiens) (UniProt P18031); assay: as §1; remark: listed apart in the source

Substance	inhibition [1] [%]	Kd [2] [nM]	Kdiss [3]	Ka [4]	inhibition [5] [%]
Ac-IAQELRRIGDEFNA-NH2	3.31	–	–	–	–
Ac-IWIAQELRRIGDEF-NH2	5	128	1.26 ×10⁻³ /s	9880 M⁻¹ s⁻¹	–
Ac-IWIAQELRRIGDEFNA-NH2	2.32	26.9	6.38 ×10⁻⁴ /s	2.37 ×10⁴ /Ms	–
Ac-WIAQELRRIGDEFN-NH2	9.43	–	–	–	–
SODIUM ORTHOVANAD	–	–	–	–	75.4
